Results: publication PMC7640639 (Journal of medicinal chemistry, 2019)
Like-named read-outs stand apart in the source and are kept apart here.

Tests used:
HT-22 cells = test: Neuroprotection against glutamate-induced oxidative stress in HT-22 cells; format: cell-based, mouse
liver = conditions: mouse, in vivo, ip, 3 mg/kg
hCB1R = hCB1R (Homo sapiens, UniProt P21554); conditions: CHO-K1 cells, hCB1 and Gαq16
[1] = system: U266 myeloma cells (cAMP-regulated MIF and STAT-3 genes, hCB2R)
hCB2R [2] = molecular target: T1, hCB2R (Homo sapiens, UniProt P34972); conditions: calcium mobilization
T1 sequence (P34972 whole entry): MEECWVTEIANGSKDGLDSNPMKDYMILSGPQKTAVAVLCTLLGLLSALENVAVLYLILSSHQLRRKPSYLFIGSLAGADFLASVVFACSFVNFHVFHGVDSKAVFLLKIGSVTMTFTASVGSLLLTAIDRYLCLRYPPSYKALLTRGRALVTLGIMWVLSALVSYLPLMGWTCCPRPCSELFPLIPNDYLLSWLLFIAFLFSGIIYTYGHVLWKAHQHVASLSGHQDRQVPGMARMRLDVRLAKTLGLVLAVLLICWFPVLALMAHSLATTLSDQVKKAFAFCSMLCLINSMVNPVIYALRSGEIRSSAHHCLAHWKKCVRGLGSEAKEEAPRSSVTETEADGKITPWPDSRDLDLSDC

μ-opioid receptor (MOR) = μ-opioid receptor (MOR) (Homo sapiens, UniProt P35372)
Chain of μ-opioid receptor (MOR) (P35372 whole entry): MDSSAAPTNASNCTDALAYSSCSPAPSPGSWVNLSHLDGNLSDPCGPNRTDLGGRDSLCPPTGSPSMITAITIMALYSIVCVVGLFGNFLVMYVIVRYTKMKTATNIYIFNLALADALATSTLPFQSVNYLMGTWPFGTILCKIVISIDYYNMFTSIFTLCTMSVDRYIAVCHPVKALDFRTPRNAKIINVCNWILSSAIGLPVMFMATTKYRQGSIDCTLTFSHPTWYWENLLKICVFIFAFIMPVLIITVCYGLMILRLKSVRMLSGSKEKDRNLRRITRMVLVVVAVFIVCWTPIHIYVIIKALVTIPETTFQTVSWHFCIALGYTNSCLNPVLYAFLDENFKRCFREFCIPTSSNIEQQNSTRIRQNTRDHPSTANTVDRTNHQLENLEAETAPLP

Aβ42 = Aβ42 (Homo sapiens, UniProt P05067); test: Inhibition of Aβ42 self-aggregation, thioflavin T fluorescence assay; format: biochemical; conditions: 50 μM inhibitor, 50 μM Aβ42 (1:1)
Chain of Aβ42 (P05067 672-713): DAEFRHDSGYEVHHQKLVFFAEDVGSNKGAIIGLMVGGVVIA

[3] = molecular target: hAChE-induced Aβ40 aggregation (Homo sapiens, UniProt P22303); format: biochemical; conditions: [I] = 100 μM; Aβ40/hAChE 100:1
Chain of hAChE-induced Aβ40 aggregation (P22303 32-614): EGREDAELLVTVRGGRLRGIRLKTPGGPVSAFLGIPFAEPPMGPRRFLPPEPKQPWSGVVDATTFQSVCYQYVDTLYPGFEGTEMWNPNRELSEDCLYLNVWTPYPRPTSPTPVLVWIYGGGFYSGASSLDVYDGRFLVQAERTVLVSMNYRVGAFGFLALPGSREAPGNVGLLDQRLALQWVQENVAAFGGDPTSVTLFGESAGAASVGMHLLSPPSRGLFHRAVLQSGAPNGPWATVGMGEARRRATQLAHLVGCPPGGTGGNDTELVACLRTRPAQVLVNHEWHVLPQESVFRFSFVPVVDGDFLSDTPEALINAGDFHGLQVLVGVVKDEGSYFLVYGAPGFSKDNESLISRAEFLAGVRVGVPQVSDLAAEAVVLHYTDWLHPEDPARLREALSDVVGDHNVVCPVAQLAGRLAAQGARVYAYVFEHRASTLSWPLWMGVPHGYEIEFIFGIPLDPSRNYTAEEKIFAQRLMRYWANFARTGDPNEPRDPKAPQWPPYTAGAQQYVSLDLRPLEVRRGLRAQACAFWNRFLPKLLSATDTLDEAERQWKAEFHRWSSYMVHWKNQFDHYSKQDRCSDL

[4] = system: Aβ25–35-induced learning impairments in mice; conditions: mouse, in vivo, ip
[5] = system: murine microglial cell line N9
hAChE = hAChE (Homo sapiens, UniProt P22303); format: biochemical
Chain of hAChE (P22303 32-614): as above

hCB2R [6] = molecular target: T1, hCB2R
[7] = HT-22 cells, 5 mM glutamate, 24 h, MTT

Chain of hCB1R (P21554 whole entry): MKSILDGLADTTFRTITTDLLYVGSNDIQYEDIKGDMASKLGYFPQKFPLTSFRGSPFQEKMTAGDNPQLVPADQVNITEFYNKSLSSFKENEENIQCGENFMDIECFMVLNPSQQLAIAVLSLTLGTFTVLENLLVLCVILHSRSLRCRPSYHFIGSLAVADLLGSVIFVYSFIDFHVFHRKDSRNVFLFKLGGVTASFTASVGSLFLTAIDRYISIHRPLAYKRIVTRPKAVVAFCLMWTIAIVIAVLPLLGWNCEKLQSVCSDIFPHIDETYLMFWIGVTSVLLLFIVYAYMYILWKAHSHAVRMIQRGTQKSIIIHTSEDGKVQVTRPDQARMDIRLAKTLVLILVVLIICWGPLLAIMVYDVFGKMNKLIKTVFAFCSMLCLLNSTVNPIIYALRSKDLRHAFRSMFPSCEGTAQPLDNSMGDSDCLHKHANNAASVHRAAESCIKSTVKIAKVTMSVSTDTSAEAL

Q: Which results are given for `CCOc1ccc(Cc2nc3cc(C(=O)N(CC)CC)ccc3n2CCCCCNc2c3c(nc4ccccc24)CCCC3)cc1` [3d, 2-(4-Ethoxybenzyl)-N,N-diethyl-1-(5-((1,2,3,4-tetrahydroacridin-9-yl)amino)pentyl)-1H-benzo[d]imidazole-5-carboxamide]?
A: neuroprotective behavior (in words) (HT-22 cells): none; necrosis positive/specimen (liver): 5/6; necrosis reported area % (liver): 5–15%

Q: With `CCOc1ccc(Cc2nc3cc(C(=O)NCCCCNc4c5c(nc6ccccc46)CCCC5)ccc3n2CCC(C)C)cc1` [4c, 2-(4-Ethoxybenzyl)-1-isopentyl-N-(4-((1,2,3,4-tetrahydroacridin-9-yl)amino)butyl)-1H-benzo[d]imidazole-5-carboxamide] as the molecule, how does the “activity at hCB1R (in words)” value (hCB1R) read?
A: The value was “devoid of activity”.

Q: And the “MIF and STAT-3 gene expression compared to vehicle” value [1]?
A: Its value is “decreased expression of both genes”.

Q: And the “behaviour at hCB2R (in words)” value (hCB2R [2])?
A: Its value is “partial agonists”.

Q: With `CCOc1ccc(Cc2nc3cc(C(=O)NCCCCCCNc4c5c(nc6ccccc46)CCCC5)ccc3n2CCC(C)C)cc1` [4e, 2-(4-Ethoxybenzyl)-1-isopentyl-N-(6-((1,2,3,4-tetrahydroacridin-9-yl)amino)hexyl)-1H-benzo[d]imidazole-5-carboxamide] as the molecule, how does the “affinity at the μ-opioid receptor (in words)” value (μ-opioid receptor (MOR)) read?
A: The value was “significant affinity”.

Q: For `CCOc1ccc(Cc2nc3cc(C(=O)NCCSSCCNc4c5c(nc6ccccc46)CCCC5)ccc3n2CCC(C)C)cc1` [compound 8, 2-(4-Ethoxybenzyl)-1-isopentyl-N-(2-((2-((1,2,3,4-tetrahydroacri-din-9-yl)amino)ethyl)disulfaneyl)ethyl)-1H-benzo[d]imidazole-5-carboxamide], which “neuroprotection at 5 μM (in words)” value (HT-22 cells; HT-22 cells, 5 mM glutamate, 5 μM compound) is on record?
A: Its value is “neuroprotection comparable to the positive control quercetin at 25 μM”.

Q: And the concentration showing neuroprotection (HT-22 cells; [7])?
A: Its concentration showing neuroprotection is at least 1 µM.

Q: And the “inhibition of Aβ42 self-aggregation (in words)” value (Aβ42)?
A: The value was “strongly inhibited”.

Q: What about the “inhibition of hAChE-induced Aβ40 aggregation (in words)” value [3] of the same molecule?
A: The value was “not able to significantly inhibit”.

Q: And the necrosis positive/specimen (liver)?
A: The necrosis positive/specimen was 8/11.

Q: What about the “necrosis reported area %” value (liver) of the same molecule?
A: The value was 5–50%.

Q: What about the “most effective dose, complete prevention of Aβ25–35 impairments in both tests” value (“most effective dose, complete prevention” for short) [4] of the same molecule?
A: Its value is 0.3 mg/kg.

Q: `CCOc1ccc(Cc2nc3cc(C(=O)NCCCNc4c5c(nc6ccccc46)CCCC5)ccc3n2CCC(C)C)cc1` [4b, 2-(4-Ethoxybenzyl)-1-isopentyl-N-(3-((1,2,3,4-tetrahydroacridin-9-yl)amino)propyl)-1H-benzo[d]imidazole-5-carboxamide] was tested. Which “inhibition of Aβ42 self-aggregation (in words)” value (Aβ42) did it give?
A: The value was “quite weak”.

Q: `CCOc1ccc(Cc2nc3cc(C(=O)NCCNc4c5c(nc6ccccc46)CCCC5)ccc3n2CCC(C)C)cc1` [4a, 2-(4-Ethoxybenzyl)-1-isopentyl-N-(2-((1,2,3,4-tetrahydroacridin-9-yl)amino)ethyl)-1H-benzo[d]imidazole-5-carboxamide] was tested. Which “affinity at the μ-opioid receptor (in words)” value (μ-opioid receptor (MOR)) did it give?
A: Its value is “significant affinity”.

Q: And the necrosis positive/specimen (liver)?
A: Its necrosis positive/specimen is 6/9.

Q: And the “necrosis reported area %” value (liver)?
A: The value was 5–10%.

Q: And the “IL1β release and iNOS expression (M1 markers)” value [5]?
A: Its value is “significantly decrease”.

Q: And the “NO release / nitrite accumulation” value [5]?
A: The value was “reduced”.

Q: And the “TREM2 and TGFβ2 expression (M2 markers)” value [5]?
A: Its value is “not reduced”.

Q: And the “most effective dose, complete prevention” value [4]?
A: Its value is 1 mg/kg.

Q: For `CCOc1ccc(Cc2nc3cc(C(=O)N(CC)CC)ccc3n2CCCCCCNc2c3c(nc4ccccc24)CCCC3)cc1` [3e, 2-(4-Ethoxybenzyl)-N,N-diethyl-1-(6-((1,2,3,4-tetrahydroacndin-9-yl)amino)hexyl)-1H-benzo[d]imidazole-5-carboxamide], which “neuroprotective behavior (in words)” value (HT-22 cells; [7]) is on record?
A: Its value is “low neuroprotective behavior”.

Q: What about the “activity at hCB1R (in words)” value (hCB1R) of the same molecule?
A: The value was “devoid of activity”.

Q: And the “inhibition of Aβ42 self-aggregation (in words)” value (Aβ42)?
A: Its value is “strongly inhibited”.

Q: And the “MIF and STAT-3 gene expression compared to vehicle” value [1]?
A: The value was “decreased expression of both genes”.

Q: And the “inhibition of hAChE-induced Aβ40 aggregation (in words)” value [3]?
A: The value was “significantly reduce the proaggregating action of hAChE”.

Q: What about the “behaviour at hCB2R (in words)” value (hCB2R [2]) of the same molecule?
A: Its value is “partial agonists”.

Q: What about the “Ki′ (inhibition constant for the enzyme-substrate-inhibitor complex), in words” value (hAChE) of the same molecule?
A: Its value is “submicromolar range”.

Q: What about the “most effective dose, complete prevention” value [4] of the same molecule?
A: The value was 0.3 mg/kg.

Q: With `Cc1c(C(=O)NN2CCCCC2)nn(-c2ccc(Cl)cc2Cl)c1-c1ccc(Cl)cc1` [Rimonabant] as the molecule, how does the “[3H]CP 55,940 displ. @10 μM hCB2R” value (hCB2R [6]) read?
A: The value was 4%.
